In data set [1] the test system is rat PKC. The note with it: O'Brian et al; cited from earlier work.
Data set [2] has as its system MCF-7/DOX cells. Nature of the data set: Inhibition of cell growth / reversal of MDR in MCF-7/DOX cells (methylene blue). It is filed as cell-based, human. The note with it: for Effectiveness in reversing MDR: MCF-7/DOX cells, Table 5 and FIG. 7; for Inhibition of cell growth, Actual: 2880 min.
Procedure: The cells were cultivated in 100 ul volumes in 96-well microtiter plates. The principle of the method was to cultivate cells in the presence of the drugs/ drug combinations for 48 hours. After this time the living cells were stained with methylene blue and quantitated spectrophotometrically using microtiter plate reader (Titertek Model MCC/340) interfaced to an Apple IIe computer. Inhibition of the cell growth is expressed as a percentage of absorbance of vehicle treated control cultures.
The conditions of data set [3]: at dose levels or concentrations required for MDR reversal; cited from earlier work.
The subject of data set [4] is MDR cell. The note with it: Ramu et al; cited from earlier work.
In data set [5] the test system is cultured cells. As to conditions: Sutherland et al; cited from earlier work.
Data set [6] deals with MCF-7 oestrogen receptor positive breast cancer cell line. As to conditions: Foster et al, cited from earlier work; for Modulation of multidrug resistance: 10 μM tamoxifen or perhexilene maleate.
Data set [7] has as its system PKC. As to conditions: Horgan et al; cited from earlier work.
For data set [8], the system named is CHO-Adr cells. Nature of the data set: MTT cell viability assay in doxorubicin resistant CHO-Adr cells. The note with it: CHO-Adr cell line. (Formazan colour is commonly taken as a measure of viable cells.)
Procedure: Initial cell growth studies were carried out to investigate the effect of combination toremifene +doxorubicin in doxorubicin sensitive and resistant cells. Cell cultures were carried out using wild type CHO-K1 cells as well as CHO-Adr cells, the latter being selected by a series of step-wise selections of doxorubicin resistant clones in presence of 0.4 ug/ml of doxorubicin. […] The resistant cells were stable in cell culture in the absence of doxorubicin. Both cell lines were cultivated in Hams F10 medium supplemented with 5% newborn calf serum, 5% foetal calf serum, antibiotics and 3mM glutamine. The cells were maintained as monolayer cultures 37° C. under 5% CO2. Drug sensitivity in CHO-K1and CHO-Adr cells was assessed by a semi-automated colorimetric MTT assay. The assay is dependent on the cellular reduction of MTT (3-U4,5-dimethylthiazol-2-ylA-2,5-diphenyl tertazolium bromide, thiazolyl blue) by the mitochondrial dehydrogenase of viable cells to a blue formazan product which was measured spectrophotometrically. The cells were seeded on 96-well plates and allowed to settle for 12 hours at 37° C. in 5% CO2. Appropriate drug concentrations diluted in growth medium were added for 24 hours. Toremifene was dissolved in 95% ethanol stock solution, doxorubicin stock solution was prepared in water. […] The cells were incubated with the drugs for 24 hours, after which the cells were washed twice with phosphate buffered saline before being placed in 200 μl fresh medium for a further 48 hours. At the end of this incubation 0.1 mg MTT was added to each well and incubated for 4 hours. The medium was carefully aspirated and the crystals were solubilised in 100 μ l DMSO (dimethyl sulfoxide). Absorbances at 540 nm were read immediately on an ELISA Multiskan reader. The results were expressed as a percentage of absorbance of drug treated cells compared to controls.
The effect of AAG in the concentration of 0.1 to 2 mg/ml was assessed on the potentiation produced by toremifene.
The subject of data set [9] is Human melanoma UV-me-1. Nature of the data set: Toremifene and doxorubicin in human melanoma UV-me-1. As to conditions: for Toremifene and doxorubicin in UV-me-1 (living cells): toremifene 0 μM, 2 days, control 100.
Data set [10] concerns HOV-007. Nature of the data set: Number of living cells (bioluminescence), ovarian cancer line HOV-007. As to conditions: toremifene 0 μM, 3 days. Here is the method:
(§1) Two human ovarian cell lines were established in vitro from fresh serous ovarian cancer tissues. The lines are coded HOV-007 and HOV-018. The cells were cultivated in Eagle's MEM containing 1% unstripped foetal calf serum. The assays were carried out at 37° C. in 5% CO2 on 96 well plates.
presented. Number of cells was quantitated after 3 days'

In data set [11] the test system is HOV-018. Nature of the data set: Number of living cells (bioluminescence), ovarian cancer line HOV-018. As to conditions: toremifene 0 μM, 4320 min. As to the method:
as §1

The test system of data set [12] is B-16 melanoma. The experiment in a line: Schedule dependency of antitumor effect in B-16 melanoma. As to the method: (§2) Lewis Lung (LL) or melanoma B-16 tumor cells, 2×10^6 cells/animal, were inoculated intramuscularly to female C-57 mice. Tumors were allowed to grow to the mean diameter of 1.5 cm after which toremifene/doxorubicin treatments were started as indicated in the next tables. Tumor size was measured before treatment and after 10 days in 2 dimensions and the mean was considered as tumor diameter. Weight of the animals was also recorded.

Data set [13] deals with Lewis Lung (LL) tumor. Nature of the data set: Schedule dependency of antitumor effect in Lewis Lung tumor. Here is the method:
as §2

The mark [14] stands for this setting: drug 0.6 μg/ml +1 μM doxorubicin.
[15] abbreviates: doxorubicin 3 mg/kg s.c. days 1-5.
The mark [16] stands for this setting: doxorubicin 3 mg/kg s.c. days 6-10.

“Also recorded” adds a separate entry of the source. Counter-ions that a name gives are not always drawn. Numbered stars: 1 amine (or outer) side, 2 acyl side, 3 side chain; on linkers, the order of the positions; unused ones are H or OH. Bridge positions count the residues as written; N and C are the ends. Square brackets hold non-standard residues; d marks the D form. Peptide text beside a SMILES is read from it. I, II: the chains in the order shown. Actinocin(9to1) = Cc1c2oc3c(C)ccc(C(=O)[*:1])c3nc-2c(C(=O)[*:2])c(N)c1=O; NMeV = CN[C@H](C(=O)O)C(C)C; Sar = CNCC(=O)O

For the molecule `CCC(=C(c1ccc(O)cc1)c1ccc(OCCN(C)C)cc1)c1ccccc1` [4-hydroxy tamoxifen], the “Inhibition of rat PKC activity in vitro” value in [1] was “inhibition of rat PKC activity in vitro”.

Take `CN(C)CCOc1ccc(C(=C(CCCl)c2ccccc2)c2ccc(O)cc2)cc1` [4-hydroxytoremifene, 4-chloro-1-(4-hydroxyphenyl)-2-phenyl-1-(4-(2-(N,N-dimethylamino)ethoxy)phenyl)-1-butene]: the “Effectiveness in reversing MDR” value in [2] is on record as “slightly less effective”. In [2] (setting [14]), the “Inhibition of cell growth, Actual” value is 28 % control and the “Potential (potentiation of doxorubicin activity)” value (“Potential” for short) turned out to be 8 % control. In data set [2] (drug […] +1 μM doxorubicin), the “Inhibition of cell growth, Actual” value came to 45 % control and the “Potential” value amounted to 10 % control.

For the molecule `CNCCOc1ccc(C(=C(CCCl)c2ccccc2)c2ccccc2)cc1` [N-demethyltoremifene, 4-chloro-1,2-diphenyl-1-(4-(2-(N-methylamino)ethoxy)phenyl)-1-butene], the “Effectiveness in reversing MDR” value in data set [2] is recorded as “almost equally effective”. In [2] (setting [14]), the “Inhibition of cell growth, Actual” value is reported as 28 % control and the “Potential” value was determined as 33 % control. Also, in data set [2] (drug […] +1 μM doxorubicin), the “Inhibition of cell growth, Actual” value turned out to be 40 % control and the “Potential” value turned out to be 43 % control.

Regarding `CC/C(=C(\c1ccccc1)c1ccc(OCCN(C)C)cc1)c1ccccc1` [Tamoxifen, tamoxifen], in [3], the “Safety / toxicity in clinical use” value is “higher toxicity”. In addition, the “Reversal of MDR by triparonol analogues” value in [4] was “reversal of MDR”. Moreover, the “Reversal by oestradiol of growth inhibitory effects of high doses” value in data set [5] is recorded as “could not be reversed by oestradiol”. In data set [6], the “Modulation of multidrug resistance” value is “modulation of multidrug resistance; also recorded: possess activity for reversing MDR”, the C14-doxorubicin accumulation entry was “no increase in C14-doxorubicin accumulation” and the “Effect of 50 nM estradiol on the effects of tamoxifen” value is “did not attenuate the effects of tamoxifen”. Further, the “Effectiveness in reversing MDR” value in [2] is “almost equally effective”. Moreover, the “Inhibition of PKC activity in vivo” value in [7] is recorded as “inhibition of PKC activity in vivo”. The “Inhibition of rat PKC activity in vitro” value in [1] is on record as “inhibition of rat PKC activity in vitro”.

For the molecule `Cc1c2oc3c(C)ccc(C(=O)N[C@@H]4C(=O)N[C@H](C(C)C)C(=O)N5CCC[C@H]5C(=O)N(C)CC(=O)N(C)[C@@H](C(C)C)C(=O)O[C@@H]4C)c3nc-2c(C(=O)N[C@@H]2C(=O)N[C@H](C(C)C)C(=O)N3CCC[C@H]3C(=O)N(C)CC(=O)N(C)[C@@H](C(C)C)C(=O)O[C@@H]2C)c(N)c1=O` [actinomycin D, reference compound] (I: T[dV]P[Sar][NMeV] / II: T[dV]P[Sar][NMeV]; ester I:1-I:C, II:1-II:C; linker I:N-II:N via Actinocin(9to1)), the “Resistance of the CHO-Adr cell line” value in [8] was “cross-resistant”.

With `CCN(CC)CCOc1ccc(C(=C(Cl)c2ccccc2)c2ccccc2)cc1` [clomiphene], in data set [4], the “Reversal of MDR by triparonol analogues” value is given as “reversal of MDR”.

Regarding `COc1cc2c(c(OC)c1OC)-c1ccc(OC)c(=O)cc1[C@@H](NC(C)=O)CC2` [colchicine, reference compound], the “Resistance of the CHO-Adr cell line” value in data set [8] is recorded as “cross-resistant”.

As for `COc1cccc2c1C(=O)c1c(O)c3c(c(O)c1C2=O)C[C@@](O)(C(C)=O)C[C@@H]3O[C@H]1C[C@H](N)[C@H](O)[C@H](C)O1` [daunorubicin, reference compound], in [8], the “Resistance of the CHO-Adr cell line” value is “cross-resistant”.

Consider `COc1cccc2c1C(=O)c1c(O)c3c(c(O)c1C2=O)C[C@@](O)(C(=O)CO)C[C@@H]3O[C@H]1C[C@H](N)[C@H](O)[C@H](C)O1` [doxorubicin], for which the “Resistance of the CHO-Adr cell line” value in data set [8] was “resistant”. The “Sensitivity of the cell line” value in [9] (UV-me-1) is listed as “relatively sensitive”. In addition, the results for the “Toremifene and doxorubicin in UV-me-1 (living cells)” value in [9] (doxorubicin 0.1 μg/ml) and in data set [9] (doxorubicin 1.0 μg/ml) were 74 and 9, respectively. Also, the “Number of living cells” value in [10] (doxorubicin 0.1 μg/ml) was 87% of control values; in data set [10] (doxorubicin 0.3 μg/ml), 64% of control values; in data set [10] (doxorubicin 1.0 μg/ml), 41% of control values; in [11] (doxorubicin 0.1 μg/ml), 96% of control values; in data set [11] (doxorubicin 0.3 μg/ml), 89% of control values. The “Change of body weight” value in data set [12] (setting [15]) is given as -5 g; in [12] (setting [16]), -2 g; in data set [13] (setting [15]) it was -2 g; in data set [13] (setting [16]), “+10 g”. Also, the results for the “Change of tumor size” value in data set [12] (setting [15]) and in [12] (setting [16]) were “+1.9 mm” and “+3.1 mm”, respectively. The results for the “Change of tumor diameter” value in data set [13] (setting [15]) and in [13] (setting [16]) were “+2.0 mm” and “+3.7 mm”, respectively.

Turning to `COc1ccc2c(c1)CCC(c1ccccc1)=C2c1ccc(OCCN2CCCC2)cc1` [nafoxidine], the “Reversal of MDR by triparonol analogues” value in [4] is “reversal of MDR”.

On to `C1CCC(C(CC2CCCCN2)C2CCCCC2)CC1` (stereo not shown) [perhexilene maleate, perhexiline maleate], for which, in [6], the “Modulation of multidrug resistance” value was “modulation of multidrug resistance”.

Values taken from patent publication US4990538A, “Use of toremifene and its metabolites for the reversal of multidrug resistance of cancer cells against cytotoxic drugs” (priority 1989, dated 1991).
